Assay results taken from patent publication US20240287089A1, “Preparation and Uses of 7-Azaindenoisoquinolines” (Purdue Research Foundation, priority 0001, published 2024).

Key:
[1] = target: 3′-TAMRA-labeled MycG4 DNA; assay: Fluorescence binding assay; details: 20° C., 100 mM K+ buffer, pH 7.0; read-out: Apparent Binding Affinity Kd, app
[2] = system: Caco-2 cells; assay: Caco-2 permeability; type: in vitro ADME
Experimental: Caco-2 Permeability Studies. The Caco-2 plate was removed from the incubator and washed twice with pre-warmed HBSS (10 mM HEPES, pH 7.4), and then incubated at 37° C. for 30 min. The stock solutions of controls compounds were diluted in DMSO to get 1 mM solutions and then diluted with HBSS (10 mM HEPES, pH 7.4) to get 5 μM working solutions. The stock solutions of the test compounds were diluted in DMSO to get 1 mM solutions and then diluted with HBSS (10 mM HEPES, pH 7.4) to get 5 μM working solutions. The final concentration of DMSO in the incubation system was 0.5%. To determine the rate of drug transport in the apical to basolateral direction, 75 μL of 5 μM working solutions of test compounds was added to the Transwell insert (apical compartment) and the wells in the receiver plate (basolateral compartment) were filled with 235 μL of HBSS (10 mM HEPES, pH 7.4). To determine the rate of drug transport in the basolateral to apical direction, 235 μL of 5 μM working solutions of test compounds were to the receiver plate wells (basolateral compartment) and then the Transwell inserts (apical compartment) were filled with 75 μL of HBSS (10 mM HEPES, pH 7.4). Time 0 samples were prepared by transferring 50 μL of 5 μM working solution to wells of the 96-deepwell plate, followed by the addition of 200 μL cold methanol containing appropriate internal standards (IS). The plates were incubated at 37° C. for 2 h. […] An aliquot of 100 μL of the supernatant was mixed with an appropriate volume of ultra-pure water before LC-MS/MS analysis. To determine the Lucifer Yellow leakage after 2 h transport period, stock solution of Lucifer yellow was prepared in ultra-pure water and diluted with HBSS (10 mM HEPES, pH 7.4) to reach the final concentration of 100 μM and then 100 μL of the Lucifer yellow solution was added to each Transwell insert (apical compartment), followed by filling the wells in the receiver plate (basolateral compartment) with 300 μL of HBSS (10 mM HEPES, pH 7.4). The plates were incubated at 37° C. for 30 minutes. Samples (80 μL) were removed directly from the apical and basolateral wells (using the basolateral access holes) and transferred to wells of new 96 wells plates.

[3] = system: RAJI lymphoma cells; assay: MTS cell viability IC50 assay; type: cell-based; details: Homo sapiens, Raji, 72 h
Summary of the method: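 Raji suspension cells, 2000 per well, were treated in triplicate with 2-2000 nM drug for 72 h at 37° C., 5% CO2. MTS/PMS colour was developed 4 h and A490 read; blank-corrected values were normalized to untreated cells and plotted against dose to derive IC50.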

[4] = system: MCF-7; assay: MTS GI50, Myc-dependent panel; type: cell-based; details: Homo sapiens, MCF7; MCF-7, 72 h; read-out: GI50
Summary of the method: (§1)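 Cells were treated in triplicate with serially diluted compound for 72 h at 37° C, 5% CO2: suspension lines were seeded at 2000 cells/well with the drug, while adherent lines (2000 cells) were allowed to attach before 2× drug-media was added. Viability was measured by MTS/PMS A490 after 4 h, normalized to untreated controls.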

[5] = system: TC-71; assay: MTS GI50, Myc-dependent panel; type: cell-based; details: TC-71, 72 h; read-out: GI50
Summary of the method: as §1

[6] = system: KMS-27; assay: MTS GI50, Myc-dependent panel; type: cell-based; details: KMS-27, 72 h; read-out: GI50
[7] = system: CHLA-99; assay: MTS GI50, Myc-dependent panel; type: cell-based; details: CHLA-99, 72 h; read-out: GI50
Summary of the method: as §1

[8] = system: RPMI-8226; assay: MTS GI50, Myc-dependent panel; type: cell-based; details: Homo sapiens, RPMI-8226, 72 h; read-out: GI50
Summary of the method: as §1

[9] = system: THP-1; assay: MTS GI50, Myc-dependent panel; type: cell-based; details: Homo sapiens, THP-1, 72 h; read-out: GI50
Summary of the method: as §1

[10] = system: AMO-1; assay: MTS GI50, Myc-dependent panel; type: cell-based; details: Homo sapiens, AMO1; AMO-1, 72 h; read-out: GI50
Summary of the method: as §1

[11] = system: K-562; assay: MTS GI50, Myc-dependent panel; type: cell-based; details: Homo sapiens, K562; K-562, 72 h; read-out: GI50
Summary of the method: as §1

[12] = system: ARD; assay: MTS GI50, Myc-dependent panel; type: cell-based; details: ARD, 72 h; read-out: GI50
Summary of the method: as §1

[13] = system: MOLT-4; assay: MTS GI50, Myc-dependent panel; type: cell-based; details: Homo sapiens, MOLT-4, 72 h; read-out: GI50
Summary of the method: as §1

[14] = system: TC-106; assay: MTS GI50, Myc-dependent panel; type: cell-based; details: TC-106, 72 h; read-out: GI50
Summary of the method: as §1

[15] = system: CCRF-CRM; assay: MTS GI50, Myc-dependent panel; type: cell-based; details: CCRF-CRM, 72 h; read-out: GI50
Summary of the method: as §1

[16] = system: MDA-MB-231; assay: MTS GI50, Myc-dependent panel; type: cell-based; details: Homo sapiens, MDA-MB-231, 72 h; read-out: GI50
Summary of the method: as §1

[17] = system: CHLA-32; assay: MTS GI50, Myc-dependent panel; type: cell-based; details: CHLA-32, 72 h; read-out: GI50
Summary of the method: as §1

[18] = system: TC-32; assay: MTS GI50, Myc-dependent panel; type: cell-based; details: Homo sapiens, TC-32, 72 h; read-out: GI50
Summary of the method: as §1

[19] = system: L-363; assay: MTS GI50, Myc-dependent panel; type: cell-based; details: Homo sapiens, L-363, 72 h; read-out: GI50
Summary of the method: as §1

[20] = system: HL-60; assay: MTS GI50, Myc-dependent panel; type: cell-based; details: Homo sapiens, HL-60, 72 h; read-out: GI50
Summary of the method: as §1

[21] = system: Kasumi-1; assay: MTS GI50, Myc-dependent panel; type: cell-based; details: Homo sapiens; Kasumi-1, 72 h; read-out: GI50
Summary of the method: as §1

[22] = system: RD-ES; assay: MTS GI50, Myc-dependent panel; type: cell-based; details: 72 h, read-out: GI50
Summary of the method: as §1

[23] = system: SK-N-MC; assay: MTS GI50, Myc-dependent panel; type: cell-based; details: Homo sapiens, 72 h, read-out: GI50
Summary of the method: as §1

[24] = system: RS4;11; assay: MTS GI50, Myc-dependent panel; type: cell-based; details: Homo sapiens; RS4;11, 72 h; read-out: GI50
Summary of the method: as §1

[25] = in vivo; details: male, CD1, mouse, iv, 20 mg/kg
Experimental: Brain Penetration Studies. […] The concentrations were determined by LC-MS/MS with direct measurement of the plasma samples. The brain tissue was homogenized with water using a 3:1 ratio of water (mL) to brain (g) before determination of the concentrations (ng/mL) in the brain homogenates, and the homogenate values then were multiplied by a factor of 4 to obtain the brain concentrations (ng/g).

[26] = mouse, 6 h, 1 μM
Experimental: Analysis of Plasma Protein Binding and Stability in Human and Mouse Blood Plasma by Equilibrium Dialysis. Frozen plasma (stored at −80° C.) was thawed immediately in a 37° C. water bath. The working solutions of test compound and control compound were prepared in DMSO at 200 μM concentration, and the working solutions were spiked into plasma. The final concentration of compound was 1 μM. The final concentration of DMSO was 0.5%. Ketoconazole was used as positive control in the assay. The dialysis membranes were soaked in ultrapure water for 60 min to separate strips, then in 20% ethanol for 20 min, and then finally in dialysis buffer for 20 min. For equilibrium dialysis, each cell contained plasma sample (150 μL) and was dialyzed against an equal volume of dialysis buffer (PBS). The assay was performed in duplicate. The dialysis plate was sealed and incubated at 37° C. with 5% CO2 at 100 rpm for 6 h. At the end of incubation, samples (50 μL) from both buffer and plasma chambers were transferred to wells of a 96-well plate. Plasma (50 μL) was added to each buffer sample and an equal volume of PBS was added to the collected plasma sample. Cold acetonitrile (400 μL) containing internal standards (IS, 100 nM alprazolam, 200 nM labetalol, 200 nM imipramine and 2 μM ketoprofen) was added to precipitate protein and release compounds. Samples were vortexed for 2 min and centrifuged for 30 min at 3,220 g. An aliquot (100 μL) of the supernatant was diluted with ultra-pure H2O (100 μL), and the mixture was used for LC-MS/MS analysis. For stability determination in plasma, a spiked plasma sample (50 μL) was transferred to a new plate and incubated at 37° C., 5% CO2 for 0 and 6 h. At designated time points, PBS (50 μL) was added and mixed thoroughly, followed by the addition of room temperature quench solution [400 μL of acetonitrile containing internal standards (IS, 100 nM alprazolam, 200 nM labetalol, 200 nM imipramine and 2 μM ketoprofen)] to precipitate protein and release compounds. Samples were vortexed for 2 min and centrifuged for 30 min at 3,220 g. An aliquot (400 μL) of the supernatant was diluted by ultra-pure H2O, and the mixture was used for LC-MS/MS analysis. The concentrations of test compounds in the buffer and plasma chambers were determined from peak area ratios.

## COc1cc2c3c(n(CCCNCCO)c(=O)c2cc1OC)-c1nc2c(cc1C3=O)OCO2 [G105, 6-(3-((2-Hydroxyethyl)amino)propyl)-2,3-dimethoxy-5H-[1,3]dioxolo[4″,5″:5′,6′]pyrido[3′,2′:4,5]cyclopenta[1,2-c]isoquinoline-5,12(6H)-dione]
[1]
  Kd: 0.097 µM
[2]; Caco-2
  Efflux Ratio: 7.60
  Recovery (%)AP-BL: 75.07%
  Recovery (%)BL-AP: 95.77%
[2]; Caco-2, 5 μM, 2 h
  Papp (A→B): 2.39 10^−6, cm/s
  Papp (B→A): 18.16 10^−6, cm/s
[3]
  IC50: 0.147 µM
[4]
  GI50: 1.39 µM
[5]
  GI50: 0.197 µM
[6]
  GI50: 0.141 µM
[7]
  GI50: 0.031 µM
[8]
  GI50: 0.559 µM
[9]
  GI50: 0.3 µM
[10]
  GI50: 0.461 µM
[11]
  GI50: 0.196 µM
[12]
  GI50: 0.121 µM
[13]
  GI50: 0.012 µM
[14]
  GI50: 0.202 µM
[15]
  GI50: 0.057 µM
[16]
  GI50: 0.806 µM
[17]
  GI50: 0.096 µM
[18]
  GI50: 0.104 µM
[19]
  GI50: 0.154 µM
[20]
  GI50: 0.29 µM
[21]
  GI50: 0.53 µM
[22]
  GI50: 0.022 µM
[23]
  GI50: 0.173 µM
[24]
  GI50: 0.034 µM
[25]
  Vd: 29 L/kg
[26]
  % Recovery: 90.43%
[26]; plasma
  % Bound: 79.41%
